In patent US7297705B2, “Azaindolylalkylamine derivatives as 5-hydroxytryptamine-6 ligands” (Wyeth, priority 2001, dated 2007) one finds Ki data, which are given here for eight molecules.

Read-outs that look alike come from different tables or passages of the source.

For the test, the target named is T1, human cloned 5-HT6 receptors (Homo sapiens, UniProt P50406).
T1 construct: expressed in transfected cells; host or cells: Hela cells
Description: 5-HT6 binding affinity, [3H]-LSD displacement on membranes of Hela cells expressing human cloned 5-HT6 receptors. Here is the method: Comparative Evaluation of 5-HT6 Binding Affinity of Test Compounds
The affinity of test compounds for the serotonin 5-HT6 receptor is evaluated in the following manner. Cultured Hela cells expressing human cloned 5-HT6 receptors are harvested and centrifuged at low speed (1,000×g) for 10.0 min to remove the culture media. The harvested cells are suspended in half volume of fresh physiological phosphate buffered saline solution and recentrifuged at the same speed. This operation is repeated. The collected cells are then homogenized in ten volumes of 50 mM Tris.HCl (pH 7.4) and 0.5 mM EDTA. The homogenate is centrifuged at 40,000×g for 30.0 min and the precipitate is collected. The obtained pellet is resuspended in 10 volumes of Tris.HCl buffer and recentrifuged at the same speed. The final pellet is suspended in a small volume of Tris.HCl buffer and the tissue protein content is determined in aliquots of 10-25 μl volumes. Bovine Serum Albumin is used as the standard in the protein determination according to the method described in Lowry et al., J. Biol. Chem., 193:265 (1951). The volume of the suspended cell membranes is adjusted to give a tissue protein concentration of 1.0 mg/ml of suspension. The prepared membrane suspension (10 times concentrated) is aliquoted in 1.0 ml volumes and stored at −70° C. until used in subsequent binding experiments.
The reaction is allowed to proceed in the dark for 120 min at room temperature, at which time, the bound ligand-receptor complex is filtered off on a 96 well unifilter with a Packard Filtermate® 196 Harvester. The bound complex caught on the filter disk is allowed to air dry and the radioactivity is measured in a Packard TopCount® equipped with six photomultiplier detectors, after the addition of 40.0 μl Microscint®-20 scintillant to each shallow well. The unifilter plate is heat-sealed and counted in a PackardTopCount® with a tritium efficiency of 31.0%.
Binding in the presence of varying concentrations of test compound is expressed as a percentage of specific binding in the absence of test compound. The results are plotted as log % bound versus log concentration of test compound. […] A linear regression line of data points is plotted, from which the IC50 value is determined and the Ki value is determined based upon the following equation: Ki=IC50/(1+L/KD) where L is the concentration of the radioactive ligand used and KD is the dissociation constant of the ligand for the receptor, both expressed in nM.

T1 sequence (P50406 whole entry): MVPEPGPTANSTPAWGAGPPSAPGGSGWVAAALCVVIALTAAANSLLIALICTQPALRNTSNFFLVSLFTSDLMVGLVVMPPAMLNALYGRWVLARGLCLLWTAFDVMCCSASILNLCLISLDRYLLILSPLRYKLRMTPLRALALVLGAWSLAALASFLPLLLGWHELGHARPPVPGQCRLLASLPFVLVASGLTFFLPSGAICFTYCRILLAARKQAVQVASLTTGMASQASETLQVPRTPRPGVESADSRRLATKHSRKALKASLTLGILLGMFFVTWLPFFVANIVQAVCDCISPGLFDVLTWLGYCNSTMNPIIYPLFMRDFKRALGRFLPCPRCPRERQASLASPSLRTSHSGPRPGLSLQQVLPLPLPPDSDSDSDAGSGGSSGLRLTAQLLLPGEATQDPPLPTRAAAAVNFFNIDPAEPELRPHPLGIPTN

Molecule `COc1ccc(S(=O)(=O)n2cc(CCN)c3cccnc32)cc1` [Example 84] came in with a Ki of 74.6 nM. In the case of `NCCc1cn(S(=O)(=O)c2cc(Br)c(Cl)s2)c2ncccc12` [Example 135], the Ki (read-out: 5-HT6 Binding Ki) was determined as 16.3 nM. In the case of `NCCc1cn(S(=O)(=O)c2ccccc2)c2ccncc12` [Example 44], the Ki (read-out: 5-HT6 Binding Ki) is 164 nM. As for `NCCc1cn(S(=O)(=O)c2c(Cl)nc3sccn23)c2cccnc12` [Example 11], affinity was put at a Ki of 0.8 nM.

The molecule `COc1ccc(S(=O)(=O)n2cc(CCN(C)C)c3cccnc32)cc1OC` [Example 99] gave a Ki of 76.6 nM.

Take `N#Cc1ccccc1S(=O)(=O)n1cc(CCN)c2cccnc21` [Example 87]: the inhibition constant (Ki) stood at 79 nM. For the molecule `CC(C)(C)c1ccc(S(=O)(=O)n2cc(CCN)c3cccnc32)cc1` [Example 91], under “read-out: 5-HT6 Binding Ki”, the inhibition constant Ki stood at 114 nM. Regarding `Cc1ccc(F)cc1S(=O)(=O)n1cc(CCN)c2cccnc21` [Example 112], the affinity corresponds to a Ki of 38.7 nM.

By Ki is commonly meant a dissociation constant, usually derived from enzyme kinetics or from competition with a known ligand.
